The record followed here is US10683559B2, “G-protein coupled receptor (GPCR)-based biosensors and uses thereof” (Georgia Tech Research Corporation, priority 2014, dated 2020).

The target of test [1] is T1, OR1G1 (Homo sapiens, UniProt P47890).
T1 construct: expressed in transfected cells; host or cells: S. cerevisiae W303 Δfar1, Δsst2, Δste2 (PPY140) or additionally Δste12 (PPY161), plasmid pESC-His3-PTEF1-OR1G1 (pKM269 and derivatives)
T1 sequence (P47890 with tags, fused parts or gaps limits assumed): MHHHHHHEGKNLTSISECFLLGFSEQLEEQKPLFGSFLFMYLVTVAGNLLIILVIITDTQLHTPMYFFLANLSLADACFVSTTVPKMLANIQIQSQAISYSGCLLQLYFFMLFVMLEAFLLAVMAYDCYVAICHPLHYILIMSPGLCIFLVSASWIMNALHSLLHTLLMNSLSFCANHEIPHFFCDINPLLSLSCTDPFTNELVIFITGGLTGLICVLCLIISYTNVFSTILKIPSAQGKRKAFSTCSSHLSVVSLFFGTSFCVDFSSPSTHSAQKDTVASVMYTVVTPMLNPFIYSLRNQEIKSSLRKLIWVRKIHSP
Put plainly: OR1G1-based yeast sensor, GFP fluorescence by flow cytometry. To be noted: for detection by the OR1G1-sensor, acid added independently: 250 μM, each acid alone (FIG. 27); for detection by the OR1G1-sensor in a mixture of fatty acids: mixture of C10, C14 and C16 acids (FIG. 27). Format: cell-based. From the text: (§1) The GPCRs tested were the olfactory receptor OR1G1 (Sanz, G., Schlegel, C., Pernollet, J. C., and Briand, L. (2005) Comparison of odorant specificity of two human olfactory receptors from different phylogenetic classes and evidence for antagonism, Chemical Senses 30, 69-80) and the free fatty acid receptor GPR40 (Itoh, Y., et al. (2003) Free fatty acids regulate insulin secretion from pancreatic beta cells through GPR40, Nature 422, 173-176). First, OR1G1 and GPR40 sensing of even, medium-chain saturated fatty acids (C8-C16) using PFIG1-GFP(m) was tested. A reliable signal after fatty acid addition was not observed (FIGS. 23 and 24). Hypothesizing that the large standard deviation of PFIG1-GFP(m) contributed to the inability to detect medium-chain fatty acids, PFIG1-GFP(s) was tested as the reporter plasmid. Using PFIG1-GFP(s) enabled the OR1G1 based-sensor to detect C8, C10 and C12 fatty acids with 13-, 17-, and 13-fold increases in signal after activation, respectively (FIGS. 8-9). Using PFIG1-GFP(s) also enabled the GPR40 based-sensor to detect C8, C10 and C12 saturated fatty acids, with 14-, 25-, and 16-fold increases in signal after activation, respectively (FIGS. 10-11). It was also explored whether the OR1G1-based sensor signal could be improved by expressing the OR1G1 from a single-copy (s) rather than a multi-copy (m) plasmid.
(§2) To engineer a system in which medium-chain fatty acid sensing would trigger only GFP transcription, Ste12 was replaced in the yeast strain carrying deletions of Ste2, Sst2, and Far1 with one of two synthetic transcription factors (STFs): 1) STF1, which is composed of the Ste12 phosphorylation domain and the Gal4 activation and DNA binding domains (Pi, H. W., Chien, C. T., and Fields, S. (1997) Transcriptional activation upon pheromone stimulation mediated by a small domain of Saccharomyces cerevisiae Ste12p, Mol Cell Biol 17, 6410-6418) and 2) STF2, which is composed of the Ste12 phosphorylation domain, the synthetic B42 activation domain and the bacterial LexA DNA binding domain (Golemis, E. A., and Brent, R. (1992) Fused Protein Domains Inhibit DNA-Binding by Lexa, Mol Cell Biol 12, 3006-3014 and Peralta-Yahya, P., Carter, B. T., Lin, H. N., Tao, H. Y., and Comish, V. W. (2008) High-Throughput Selection for Cellulase Catalysts Using Chemical Complementation, J Am Chem Soc 130, 17446-17452). STF1 can activate transcription of GFP placed under control of a synthetic minimal promoter carrying five Gal4 DNA binding sites (PGal4(5×)). STF2 activates transcription of GFP placed under control of a synthetic minimal promoter carrying four lexA DNA binding sites (PLexA(4×)) (FIGS. 17 and 18).
(§3) For the Ste2/α-factor sensor, strains PPY638, PPY639, PPY640, PPY641 were grown overnight in synthetic complete media with 2% glucose and lacking leucine (SD glu (L^−)). The next day, the cells were used to inoculate a 20 mL of SD glu (L^−) to an OD600=0.06 and incubated for 18 hrs at 30° C. (150 r.p.m.). The cells were centrifuged, re-suspended in 5 mL SD glu (L^−), used to innoculate 5 ml of fresh SD glu (L^−) to OD600=0.6. α-factor (0-100 nM, Zymo Y1001) was added to the medium and incubated for 4 hrs at 30° C. (150 r.p.m.) before reading for cell fluorescence using a flow cytometer. For the OR1G1- and GPR40-based sensors using Ste12/PFIG1-GFP response unit, strains PPY643, PPY644 were grown overnight in SD glu and lacking histidine and leucine (SD glu (HL^−)). The next day, the cells were used to inoculate a 20 mL of SD glu (HL^−) to an OD600=0.06 and incubated for 18 hrs at […] (150 r.p.m.). The cells were centrifuged, re-suspended in 2 ml SD glu (HL^−) to OD600=0.6. C8, C10, C12, C14 and C16 saturated fatty acids (0-800 μM) were added to the medium and incubated for 4 hrs at 30° C. (150 r.p.m.) before reading for cell fluorescence using a flow cytometer. […]

Test [2] has as its target T2, GPR40 (Homo sapiens, UniProt O14842).
T2 construct: expressed in transfected cells; host or cells: S. cerevisiae W303 Δfar1, Δsst2, Δste2 (PPY140) or additionally Δste12 (PPY161), plasmid pESC-His3-PTEF1-GPR40 (pKM469 and derivatives)
Kind of test: GPR40-based yeast sensor, GFP fluorescence by flow cytometry. It is filed as cell-based.
From the text: as §1, §2, §3

Where [3] appears, read: Ste12/PFIG1-GFP(s), maximum at C8 800 μM, C10 250 μM, C12 500 μM.
Setting [4] is: W303 Δfar1, Δsst2, Δste2, reporter PFig1-GFP(s), TF Ste12.
Where [5] appears, read: Ste12/PFIG1-GFP(s), maximum at C8 800 μM, C10 800 μM, C12 250 μM.
Where [6] appears, read: C8, C10, C12 fatty aldehydes and alcohols, C10 methyl- and ethyl-esters, dose response.
The mark [7] stands for this setting: 0 or 500 μM decanoic acid, PFig1-GFP(s), compared with no GPCR.
Where [8] appears, read: STF1/PGal4(5×)-GFP response unit, 800 μM decanoic acid.
[9] abbreviates: W303 Δfar1, Δsst2, Δste2, Δste12, 500 μM decanoic acid, PFig1-GFP(s).
Where [10] appears, read: W303 Δfar1, Δsst2, Δste2, Δste12, reporter PGal4(5x)-GFP(m), TF STF1.
[11] abbreviates: W303 Δfar1, Δsst2, Δste2, Δste12, reporter PLexA(4x)-GFP(m), TF STF2.

T2 sequence (O14842 whole entry): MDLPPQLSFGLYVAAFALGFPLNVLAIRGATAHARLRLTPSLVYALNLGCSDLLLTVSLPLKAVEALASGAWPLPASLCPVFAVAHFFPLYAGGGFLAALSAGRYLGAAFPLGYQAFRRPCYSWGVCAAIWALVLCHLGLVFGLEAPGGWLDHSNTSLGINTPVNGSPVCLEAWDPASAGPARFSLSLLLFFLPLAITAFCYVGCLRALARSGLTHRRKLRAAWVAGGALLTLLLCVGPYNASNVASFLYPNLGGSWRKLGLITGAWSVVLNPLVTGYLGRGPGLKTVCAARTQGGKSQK

On to `CCCCCCCC(=O)O` [C8 acid], for which the entries for the “increase in signal after activation” value in test [1] (setting [3]) and in test [2] (setting [5]) were 13 fold and 14 fold, respectively. The Dynamic range amounted to 13 in test [1] (setting [4]) and 14 in test [2] (setting [4]). Also, the GFP max came out at 239 AU in test [1] (setting [4]) and 197 AU in test [2] (setting [4]). Also, the values for the Linear range in test [1] (setting [4]) and in test [2] (setting [4]) were 19 to 250 µM and 36 to 250 µM, respectively.
`CCCCCCCC=O` [C8 aldehyde]: in test [2] (setting [6]), the “increase in signal after activation (specificity)” value was “unable to detect”.
As for `CCCCCCCCCC(=O)O` [C10 acid, decanoic acid], the “GFP fluorescence in presence of GPCR” value in test [1] (setting [7]) and in test [2] (setting [7]) was “increase in GFP fluorescence” in each case. Further, the “detection by the OR1G1-sensor, acid added independently” value in test [1] is recorded as “able to detect”. The “linear range reaching to” value in test [1] (STF1/PGal4(5×)-GFP response unit) turned out to be 500 µM. Further, in test [1] (setting [8]), the “improvement in signal after activation over the Ste12/PFIG1-GFP(s) response unit” value is recorded as roughly 200%. Also, the “increase in signal after activation” value in test [1] (setting [8]) is given as 30 fold; in test [1] (STF2/PLexA(4×)-GFP response unit, 800 μM decanoic acid), 7 fold; in test [1] (setting [3]), 17 fold; in test [2] (STF1/PGal4(5×)-GFP response unit, 500 μM decanoic acid) it was 28 fold; in test [2] (setting [5]), 25 fold. In test [1] (Ste12/PFIG1-GFP(s) response unit), the “linear range plateaued at” value stood at 250 µM. Further, the “GFP fluorescence in the absence of Ste12” value in test [1] (setting [9]) and in test [2] (setting [9]) was “no observable increase in GFP fluorescence” in each case. Further, the Dynamic range in test [1] (setting [10]) was 30; in test [1] (setting [11]), 7; in test [1] (setting [4]), 17; in test [2] (setting [10]), 28; in test [2] (setting [11]), 4; in test [2] (setting [4]), 25. Further, the GFP max in test [1] (setting [10]) is 1126 AU; in test [1] (setting [11]) it was 405 AU; in test [1] (setting [4]), 308 AU; in test [2] (setting [10]), 573 AU; in test [2] (setting [11]), 501 AU; in test [2] (setting [4]) it was 339 AU. In addition, the Linear range in test [1] (setting [10]) lay within 110 to 500 µM; in test [1] (setting [11]), 2 to 100 µM; in test [1] (setting [4]), 34 to 250 µM; in test [2] (setting [10]), 47 to 250 µM; in test [2] (setting [11]), 4 to 100 µM; in test [2] (setting [4]) it was 36 to 100 µM. Moreover, the “increase in signal after activation with chromosomal GPA1 compared with Golf and GPA1-Golf” value in test [1] (above 250 μM decanoic acid) is “greatest increase in signal after activation”. Further, the results for the “detection by the OR1G1-sensor in a mixture of fatty acids” value in test [1] and in test [1] (listed as decanoic acid) were “not able to detect” and “inability”, respectively. For the same molecule, in test [2] (STF2/PLexA(4×) response unit, 500 μM C10 acid (FIG. 22)), the “increase in GFP expression” value is listed as 4 fold. Moreover, the “flow cytometry histogram of the biosensor strain” value in test [2] (incubated with compound vs no compound (FIGS. 30A-30E)) is on record as “shift of the population”.
Take `CCCCCCCCCC=O` [C10 aldehyde]: the “increase in signal after activation (specificity)” value in test [1] (setting [6]) was greater than 3 fold. In addition, the “increase in signal after activation” value in test [2] (at 125 μM) was 3 fold.
For `CCCCCCCCCCCC(=O)O` [C12 acid], the “increase in signal after activation” value in test [1] (setting [3]) stood at 13 fold; in test [2] (setting [5]) it was 16 fold. The results for the Dynamic range in test [1] (setting [4]) and in test [2] (setting [4]) were 13 and 16, respectively. Besides, the GFP max in test [1] (setting [4]) came to 233 AU; in test [2] (setting [4]) it was 222 AU. The figures for the Linear range in test [1] (setting [4]) and in test [2] (setting [4]) were 1 to 250 µM and 2 to 250 µM, respectively.
As for `CCCCCCCCCCCC=O` [C12 aldehyde], the “increase in signal after activation” value in test [2] (at 250 μM) is reported as 3 fold.
On to `CCCCCCCCCCCCCC(=O)O` [C14 acid], for which, in test [1], the “detection by the OR1G1-sensor, acid added independently” value is given as “able to detect” and the “detection by the OR1G1-sensor in a mixture of fatty acids” value is on record as “not able to detect”.
The corresponding values for `CCCCCCCCCCCCCCCC(=O)O` [C16 acid] are “able to detect” and “not able to detect”.
